Results on nine compounds are retold here after ChEMBL document CHEMBL1201862, “PubChem BioAssay data set” (2004).

Test systems include Hs-578T; SNB-19; RPMI-8226; NCI/ADR-RES; OVCAR-3; KM12; CAKI-1; HOP-92; K562; SK-MEL-5; OVCAR-5; LOX IMVI; HCT-15; SF-268; SNB-75; NCI-H522; SK-OV-3; IGROV-1; DU-145; SW-620.
Assay in all cases: NCI-60 cell line screen, 48 h

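These data come from cells grown in 96-well plates and exposed to compound for 48 hours at five concentrations. Abbreviation: GI50, concentration required for 50% inhibition of growth.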 The source made the active and inactive calls. Rule as the data show it: active = GI50 up to about 1.1 µM and inactive = higher.

On to `COc1cc(C(c2cc3c(cc2O)OCO3)N2CCCCC2)cc(OC)c1OC` (stereo not given), for which the GI50 is 14 µM (inactive) with Hs-578T; 20.6 µM (inactive) in the test with SNB-19; 2.96 µM (inactive) with RPMI-8226; 17.5 µM (inactive) in the test on NCI/ADR-RES; 13.8 µM (inactive) in the test with OVCAR-3; 18.2 µM (inactive) with KM12. Besides, the GI50 in the test with CAKI-1 was 12.1 µM (inactive); in the test with HOP-92, 9.25 µM (inactive); in the test with K562 it was 2.63 µM (inactive); in the test with SK-MEL-5 it was 19.1 µM (inactive); with OVCAR-5 it was 17.8 µM (inactive); in the test on LOX IMVI, 14.8 µM (inactive). Besides, the GI50 with HCT-15 is 15.9 µM; in the test with SF-268, 15.8 µM (inactive); in the test with SNB-75 it was 16.8 µM (inactive); in the test on NCI-H522, 11.8 µM (inactive); in the test with SK-OV-3, 22.2 µM (inactive); with IGROV-1, 17.7 µM (inactive). Moreover, the GI50 in the test on DU-145 is 17.5 µM (inactive); with SW-620, 4.57 µM (inactive).

In the case of `CCOc1ccc(-n2c(=O)c3nn4c(=O)n(-c5ccc(OCC)cc5)c(=O)c4nn3c2=O)cc1`, the GI50 is 28.5 µM (inactive) with Hs-578T; 63 µM (inactive) with SNB-19; > 100 µM (inactive) in the test on RPMI-8226; > 100 µM (inactive) in the test on NCI/ADR-RES; > 100 µM (inactive) with OVCAR-3; > 100 µM (inactive) in the test on KM12. The GI50 was > 100 µM (inactive) in the test on CAKI-1; 30.9 µM (inactive) in the test on HOP-92; > 100 µM (inactive) with K562; > 100 µM (inactive) in the test on SK-MEL-5; > 100 µM (inactive) in the test with OVCAR-5; > 100 µM (inactive) with LOX IMVI. The GI50 with HCT-15 is > 100 µM; in the test with SF-268, > 100 µM (inactive); with SNB-75 it was 20.3 µM (inactive); in the test on NCI-H522 it was > 100 µM (inactive); in the test with SK-OV-3 it was > 100 µM (inactive); in the test on IGROV-1, > 100 µM (inactive). The GI50 in the test on DU-145 and in the test with SW-620 was > 100 µM (inactive) throughout.

`COc1ccc(Cc2n[nH]c(Nc3ccc(Br)cc3)nc2=O)cc1OC`: the GI50 in the test on Hs-578T is 35 µM (inactive); in the test on SNB-19, > 100 µM (inactive); in the test on RPMI-8226 it was > 100 µM (inactive); with NCI/ADR-RES, > 100 µM (inactive); in the test with OVCAR-3, > 74.3 µM (inactive); with KM12, 36.6 µM (inactive). In addition, the GI50 with CAKI-1 was > 100 µM (inactive); in the test with HOP-92, > 100 µM (inactive); in the test on K562, 44.9 µM (inactive); in the test on SK-MEL-5 it was > 87.9 µM (inactive); with OVCAR-5, > 100 µM (inactive); with LOX IMVI, 69.5 µM (inactive). For the same compound, the GI50 with HCT-15 was > 100 µM; in the test with SF-268 it was 88.5 µM (inactive); with SNB-75, 28.9 µM (inactive); in the test on NCI-H522 it was 57.7 µM (inactive); in the test on SK-OV-3 it was > 100 µM (inactive); in the test on IGROV-1, > 100 µM (inactive). For the same compound, the GI50 with DU-145 and in the test with SW-620 was > 100 µM (inactive) in each case.

`C=C1C(=O)CC2C1CC(=O)/C(C)=C/CCC(C)(O)C2O` (stereo not given): the GI50 was 5.4 µM (inactive) in the test on Hs-578T; > 54.3 µM (inactive) in the test with SNB-19; 1.41 µM (inactive) in the test on RPMI-8226; 8.2 µM (inactive) in the test with NCI/ADR-RES; 7.16 µM (inactive) in the test with OVCAR-3; 13.8 µM (inactive) in the test on KM12. Besides, the GI50 is 1.55 µM (inactive) with CAKI-1; 8.67 µM (inactive) in the test on HOP-92; 2.19 µM (inactive) with K562; 6.79 µM (inactive) with SK-MEL-5; 17.5 µM (inactive) in the test with OVCAR-5; 5.47 µM (inactive) in the test on LOX IMVI. Also, the GI50 in the test with HCT-15 was 4.9 µM; in the test on SF-268, 18.1 µM (inactive); with SNB-75 it was 11.8 µM (inactive); with NCI-H522, 1.5 µM (inactive); in the test on SK-OV-3, 2.84 µM (inactive); in the test with IGROV-1, 10.6 µM (inactive). Besides, the GI50 is 8.77 µM (inactive) in the test with DU-145 and 7.26 µM (inactive) with SW-620.

For `O=C(CC(c1ccccc1)N1CCCCC1)c1ccccc1` (stereo not given), the GI50 is 24.8 µM (inactive) with Hs-578T; 19.6 µM (inactive) in the test on SNB-19; 2.49 µM (inactive) in the test on RPMI-8226; 22.5 µM (inactive) with NCI/ADR-RES; 11.2 µM (inactive) in the test on OVCAR-3; 6.82 µM (inactive) with KM12. The GI50 is 15.7 µM (inactive) with CAKI-1; 15 µM (inactive) with HOP-92; 1.44 µM (inactive) with K562; 15.6 µM (inactive) in the test with SK-MEL-5; 17.5 µM (inactive) in the test with OVCAR-5; 5.66 µM (inactive) with LOX IMVI. For the same compound, the GI50 with HCT-15 was 14.9 µM; in the test on SF-268, 16 µM (inactive); with SNB-75, 16.6 µM (inactive); in the test with NCI-H522 it was 12.9 µM (inactive); with SK-OV-3 it was 17.6 µM (inactive); with IGROV-1, 14 µM (inactive). Further, the GI50 in the test on DU-145 is 15.1 µM (inactive); in the test with SW-620, 4.06 µM (inactive).

`COc1ccc(/N=N/C(=NNC(=O)c2ccc(C)cc2)c2ccc(N(C)C)cc2)cc1`: the GI50 was > 100 µM (inactive) with Hs-578T; 61.2 µM (inactive) with SNB-19; 17.5 µM (inactive) with RPMI-8226; 33.8 µM (inactive) in the test with NCI/ADR-RES; 28.4 µM (inactive) in the test with OVCAR-3; 30.1 µM (inactive) in the test on KM12. The GI50 in the test with CAKI-1 is > 91.8 µM (inactive); in the test with HOP-92, 41.5 µM (inactive); with K562, 29.4 µM (inactive); in the test on SK-MEL-5, 27.2 µM (inactive); in the test with OVCAR-5, > 85.9 µM (inactive); in the test on LOX IMVI, 34.8 µM (inactive). The GI50 with HCT-15 is 32.4 µM; in the test with SF-268, > 85.7 µM (inactive); in the test on SNB-75 it was 87.3 µM (inactive); in the test with NCI-H522, 28.9 µM (inactive); in the test on SK-OV-3, 31.8 µM (inactive); in the test with IGROV-1, 59.6 µM (inactive). The GI50 in the test with DU-145 is 25.1 µM (inactive); in the test on SW-620, 56.8 µM (inactive).

On to `O=C1CCC2(CC1CCSc1ccccc1)OCCO2` (stereo not given), for which the GI50 in the test on Hs-578T, in the test with SNB-19, in the test with RPMI-8226, in the test on NCI/ADR-RES, in the test on OVCAR-3 and with KM12 was > 100 µM (inactive) each time. In addition, the GI50 was > 100 µM (inactive) with CAKI-1; > 100 µM (inactive) in the test on HOP-92; > 100 µM (inactive) with K562; 88.5 µM (inactive) in the test with SK-MEL-5; > 100 µM (inactive) with OVCAR-5; 98.9 µM (inactive) with LOX IMVI. Also, the GI50 in the test with HCT-15 is > 100 µM; in the test with SF-268, > 100 µM (inactive); with SNB-75 it was > 100 µM (inactive); with NCI-H522, > 100 µM (inactive); in the test on SK-OV-3 it was > 100 µM (inactive); with IGROV-1, > 100 µM (inactive). For the same compound, the GI50 in the test on DU-145 and with SW-620 was > 100 µM (inactive) throughout.

In the case of `Cc1ccnc2[nH]c3ccccc3c(=O)c12`, the GI50 was 16.3 µM (inactive) with Hs-578T; 29.6 µM (inactive) in the test with SNB-19; 25.9 µM (inactive) in the test with RPMI-8226; 28.6 µM (inactive) in the test on NCI/ADR-RES; 23.7 µM (inactive) with OVCAR-3; 13.1 µM (inactive) with KM12. For the same compound, the GI50 is 8.41 µM (inactive) with CAKI-1; 41.6 µM (inactive) in the test on HOP-92; 33.2 µM (inactive) with K562; 14 µM (inactive) in the test on SK-MEL-5; 23.8 µM (inactive) in the test with OVCAR-5; 19.5 µM (inactive) with LOX IMVI. Also, the GI50 is 25.5 µM in the test with HCT-15; 18.9 µM (inactive) in the test with SF-268; 16.7 µM (inactive) in the test on SNB-75; 15.2 µM (inactive) with NCI-H522; 43.5 µM (inactive) with SK-OV-3; 17.5 µM (inactive) in the test on IGROV-1. The GI50 with DU-145 is 30.2 µM (inactive); with SW-620, 35.9 µM (inactive).

`O=[N+]([O-])c1ccc(-c2nnc(C34CC5CC(CC(C5)C3)C4)o2)cc1`: the GI50 in the test on Hs-578T, in the test with SNB-19, in the test on RPMI-8226, in the test on NCI/ADR-RES, in the test with OVCAR-3 and with KM12 was > 100 µM (inactive) in each case. Also, the GI50 in the test with CAKI-1, with HOP-92, in the test with K562, with SK-MEL-5, in the test on OVCAR-5 and in the test on LOX IMVI was > 100 µM (inactive) each time. In addition, the GI50 is > 100 µM with HCT-15; > 100 µM (inactive) in the test on SF-268; > 100 µM (inactive) in the test on SNB-75; > 100 µM (inactive) in the test with NCI-H522; > 100 µM (inactive) in the test with SK-OV-3; > 100 µM (inactive) with IGROV-1. The GI50 with DU-145 and with SW-620 was > 100 µM (inactive) each time.
